For data set [1], the system named is patient derived organoids. As to the kind of experiment: Calculated IC50 of various agents on organoids derived from the chemoresistant patient (PD3D cell culture). The following applies: organoids of the chemoresistant stage IV patient. Format: cell-based, human. The protocol:
The IC50 values were calculated from such tests. This value indicates the dosage at which 50% of the organoids were killed due to treatment.

For data set [2] the following is noted: cited from earlier work.
Data set [3] has as its system patient derived organoids. Format: cell-based, human. The following applies: % of cells that died compared to control; organoids of the chemoresistant patient. The protocol: In addition to the agents listed above, several other drugs were tested to see if they influenced organoid growth. In this case, results are shown as the % of cells that died compared to control. […] This is consistent with the patient's actual lack of response to treatment with paclitaxel.

For data set [4], the system named is patient derived endometrial cancer organoids. The data set can be described thus: Patient-derived endometrial cancer organoid viability: chemotherapeutic agent alone or with IC50 dose of cannabis extract. The settings on record: patient 4. The protocol:
To perform these experiments, we used cells from patient 4 (see, e.g., FIGS. 7A and 7C) to test grade 2 endometrial cancer and cells from patient 12 (see, e.g., FIGS. 7B-7D) to test grade 3 endometrial cancer. […] Methods concerning producing organoids from human tissue samples are provided in the Methods section at the end of this document.
Individual patient cell organoids were cultured separately in different plates.
The same IC50 dose was given with each incremental dose of chemotherapeutic agent.

The conditions of data set [5]: oral formulations; cited from earlier work.

Like-named read-outs stand apart in the source and are kept apart here.

Regarding `C[C@H]1[C@H](OC(=O)CCC(=O)O)O[C@@H]2O[C@@]3(C)CC[C@H]4[C@H](C)CC[C@@H]1[C@@]24OO3` [Artesunate], the IC50 in data set [1] (Homo sapiens) is 38.4 µM. In data set [2] (in vivo), the Cmax is 8580 nM.
With `O=C1O[C@H]([C@@H](O)CO)C(O)=C1O` [Ascorbic Acid], the “Calculated IC50 PD3D Cell Culture” value in data set [1] is listed as “Not Reached”. The maximum concentration (Cmax) in data set [2] (in vivo) is 436000 nM.
With `CO[C@H]1C(=O)[C@]2(C)[C@@H](OC)C[C@H]3OC[C@@]3(OC(C)=O)[C@H]2[C@H](OC(=O)c2ccccc2)[C@]2(O)C[C@H](OC(=O)[C@H](O)[C@@H](NC(=O)OC(C)(C)C)c3ccccc3)C(C)=C1C2(C)C` [Cabazitaxel], the “% Cell Death” value in data set [3] amounted to 37%.
For `CCCCCOC(=O)Nc1nc(=O)n([C@@H]2O[C@H](C)[C@@H](O)[C@H]2O)cc1F` [Capecitabine (5-FU)], the “% Cell Death” value in data set [3] is 61%. For the same compound, the “Calculated IC50 PD3D Cell Culture” value in data set [1] is reported as “Not Reached”.
Take `N.N.O=C([O-])C1(C(=O)[O-])CCC1.[Pt+2]` [Carboplatin]: in data set [4] (carboplatin alone 50 μM/mL), the “reduction of viable organoids” value is “about 50%”. Further, the “decrease in viability as compared to 50 μM/mL” value in data set [4] (carboplatin alone 100 μM/mL) is 2%. For the same compound, in data set [4] (carboplatin alone 250 μM/mL), the “decrease in viability from that achieved at 50 μM/mL” value amounted to 17% and the organoid viability entry is given as “about 32%”. Besides, the “% Cell Death” value in data set [3] was 30%.
In the case of `N.N.[Cl][Pt][Cl]` [Cisplatin], the “% Cell Death” value in data set [3] was found to be 36%. Moreover, in data set [1], the half-inhibitory concentration (IC50) is 5.05 µM. Moreover, in data set [2] (in vivo), the Cmax is 3620 nM.
For `O=C(c1ccc(F)c(F)c1Nc1ccc(I)cc1F)N1CC(O)([C@@H]2CCCCN2)C1` [Cobimetinib], the “Calculated IC50 PD3D Cell Culture” value in data set [1] is given as “Not Reached”. The peak concentration (Cmax) in data set [2] is 514 nM.
Regarding `COc1cc2c(c(OC)c1OC)-c1ccc(OC)c(=O)cc1[C@@H](NC(C)=O)CC2` [Colchicine], in data set [2] (in vivo), the Cmax was 6 nM.
`C[C@@H](Oc1cc(-c2cnn(C3CCNCC3)c2)cnc1N)c1c(Cl)ccc(F)c1Cl` [Crizotinib]: the “Calculated IC50 PD3D Cell Culture” value in data set [1] is on record as “Not Reached”. Moreover, the Cmax in data set [2] (in vivo) was 230 nM.
For `O=P1(N(CCCl)CCCl)NCCCO1` (stereo not shown) [Cyclosphosphamide], the “% Cell Death” value in data set [3] is 32%.
Same read-out and setting: the result for `CN(C)/N=N/c1[nH]cnc1C(N)=O` [Dacarbazine] reads 32%.
For `O=C(O)C(Cl)Cl` [Dichloracetate], in data set [1], the “Calculated IC50 PD3D Cell Culture” value is given as “Not Reached”. Moreover, the Cmax in data set [2] (in vivo) was 330000 nM.
For `CC(=O)O[C@@]12CO[C@@H]1C[C@H](O)[C@@]1(C)C(=O)[C@H](O)C3=C(C)[C@@H](OC(=O)[C@H](O)[C@@H](NC(=O)OC(C)(C)C)c4ccccc4)C[C@@](O)([C@@H](OC(=O)c4ccccc4)[C@H]21)C3(C)C` [Docetaxel], in data set [3], the “% Cell Death” value is recorded as “No Response”.
Turning to `COc1cccc2c1C(=O)c1c(O)c3c(c(O)c1C2=O)C[C@@](O)(C(=O)CO)C[C@@H]3O[C@H]1C[C@H](N)[C@H](O)[C@H](C)O1` [Doxorubicin], in data set [3], the “% Cell Death” value stood at 39%.
As for `COc1cc([C@@H]2c3cc4c(cc3[C@@H](O[C@@H]3O[C@@H]5CO[C@@H](C)O[C@H]5[C@H](O)[C@H]3O)[C@H]3COC(=O)[C@H]23)OCO4)cc(OC)c1O` [Etoposide], the “% Cell Death” value in data set [3] worked out at 33%. In addition, the 50% inhibitory concentration (IC50) in data set [1] (Homo sapiens, unit inferred) is 87.3 µM. The Cmax in data set [2] was 33900 nM.
As to `Nc1ccn([C@@H]2O[C@H](CO)[C@@H](O)C2(F)F)c(=O)n1` [Gemcitabine], in data set [3], the “% Cell Death” value worked out at 56%.
For `N[C@@H](CCC(=O)N[C@@H](CS)C(=O)NCC(=O)O)C(=O)O` [Glutathione], in data set [1], the “Calculated IC50 PD3D Cell Culture” value is “Not Reached”. Also, in data set [2] (in vivo), the Cmax is 150000 nM.
As for `CCN(CCO)CCCC(C)Nc1ccnc2cc(Cl)ccc12` (stereo not shown) [Hydroxychloroquine], in data set [1], the “Calculated IC50 PD3D Cell Culture” value is “Not Reached”. For the same compound, the highest concentration (Cmax) in data set [2] (in vivo) is 120 nM.
`CCc1c2c(nc3ccc(OC(=O)N4CCC(N5CCCCC5)CC4)cc13)-c1cc3c(c(=O)n1C2)COC(=O)[C@]3(O)CC` [Irinotecan]: in data set [3], the “% Cell Death” value stood at 51%.
For the compound `COc1cc2nccc(Oc3ccc(NC(=O)NC4CC4)c(Cl)c3)c2cc1C(N)=O` [Lenvatinib], the “Calculated IC50 PD3D Cell Culture” value in data set [1] was “Not Reached”. In data set [2], the Cmax is 1000 nM.
In the case of `N[C@@H](Cc1ccc(N(CCCl)CCCl)cc1)C(=O)O` [Melphalan], the “% Cell Death” value in data set [3] was found to be 40%.
In the case of `CN(C)C(=N)N=C(N)N` [Metformin], the “Calculated IC50 PD3D Cell Culture” value in data set [1] was “Not Reached”. In data set [2] (in vivo), the peak concentration (Cmax) is 10800 nM.
For the compound `O=C1c2c(O)ccc(O)c2C(=O)c2c(NCCNCCO)ccc(NCCNCCO)c21` [Mitoxantrone], the “% Cell Death” value in data set [3] is on record as 50%.
In the case of `O=C(Nc1ccc([N+](=O)[O-])cc1Cl)c1cc(Cl)ccc1O` [Niclosamide], in data set [1] (Homo sapiens), the IC50 was 0.6 µM. Also, the peak concentration (Cmax) in data set [2] (in vivo) is 310 nM.
In the case of `O=C(c1cc(Cc2n[nH]c(=O)c3ccccc23)ccc1F)N1CCN(C(=O)C2CC2)CC1` [Olaparib], the “Calculated IC50 PD3D Cell Culture” value in data set [1] is recorded as “Not Reached”. In data set [2], the Cmax is 17500 nM.
On to `Cc1[nH]c2ccccc2c1CCNCc1ccc(/C=C/C(=O)NO)cc1` [Panobinostat], for which, in data set [1] (Homo sapiens), the concentration for half-maximal inhibition (IC50) is 0.11 µM. Besides, the maximum concentration (Cmax) in data set [2] (in vivo) is 60 nM.
For the compound `Nc1nc2[nH]cc(CCc3ccc(C(=O)N[C@@H](CCC(=O)O)C(=O)O)cc3)c2c(=O)[nH]1` [Pemetrexed], the “% Cell Death” value in data set [3] is “No Response”. For the same compound, the “Calculated IC50 PD3D Cell Culture” value in data set [1] was “Not Reached”. The highest concentration (Cmax) in data set [2] is 291000 nM.
`Nc1cccc2c1C(=O)N(C1CCC(=O)NC1=O)C2=O` (stereo not shown) [Pomalidomide]: the “Calculated IC50 PD3D Cell Culture” value in data set [1] was “Not Reached”. Besides, the Cmax in data set [2] (in vivo) was 270 nM.
As to `Cc1ccc(C(=O)Nc2ccc(CN3CCN(C)CC3)c(C(F)(F)F)c2)cc1C#Cc1cnc2cccnn12` [Ponatinib], in data set [2], the maximum concentration (Cmax) was 137 nM.
Regarding `CC(C)NCC(O)COc1cccc2ccccc12` (stereo not shown) [Propranolol], the Cmax in data set [2] was 102 nM.
As to `N#CC[C@H](C1CCCC1)n1cc(-c2ncnc3[nH]ccc23)cn1` [Ruxolitinib], the Cmax in data set [2] was 587 nM.
For the compound `CO[C@@H](C)Cn1c(=O)n(C)c2cnc3ccc(-c4cncc(C(C)(C)O)c4)cc3c21` [Samotolisib], in data set [1] (Homo sapiens), the IC50 was 0.87 µM. Also, in data set [2] (in vivo), the maximum concentration (Cmax) was 600 nM.
As for `CCN(CC)CCNC(=O)c1c(C)[nH]c(/C=C2\C(=O)Nc3ccc(F)cc32)c1C` [Sunitnib], in data set [1], the “Calculated IC50 PD3D Cell Culture” value is recorded as “Not Reached”. Besides, in data set [2] (in vivo), the Cmax was 90 nM.
`CCCCCc1cc(O)c2c(c1)OC(C)(C)[C@@H]1CCC(C)=C[C@@H]21` [THC, Δ^9-tetrahydrocannabinol]: the “onset to reach peak plasma concentration” value in data set [5] was roughly 120 min.
With `Cn1nnc2c(C(N)=O)ncn2c1=O` [Temozolomide], the “% Cell Death” value in data set [3] is on record as 40%. Moreover, the IC50 in data set [1] (Homo sapiens) is 106 µM. Further, the highest concentration (Cmax) in data set [2] (in vivo) was 37600 nM.
In the case of `COc1cc2c(cc1O)CCN[C@]21CS[C@@H]2c3c(OC(C)=O)c(C)c4c(c3[C@H](COC1=O)N1[C@@H]2[C@H]2c3c(cc(C)c(OC)c3O)C[C@@H]([C@@H]1O)N2C)OCO4` [Trabectedine], the “% Cell Death” value in data set [3] is reported as 32%.
Consider `CC[C@]1(O)C[C@@H]2CN(CCc3c([nH]c4ccccc34)[C@@](C(=O)OC)(c3cc4c(cc3OC)N(C)[C@H]3[C@@](O)(C(=O)OC)[C@H](OC(C)=O)[C@]5(CC)C=CCN6CC[C@]43[C@@H]65)C2)C1` [Vinblastine], for which the “% Cell Death” value in data set [3] is listed as 38%.
In the case of `CCC1=C[C@@H]2CN(C1)Cc1c([nH]c3ccccc13)[C@@](C(=O)OC)(c1cc3c(cc1OC)N(C)[C@H]1[C@@](O)(C(=O)OC)[C@H](OC(C)=O)[C@]4(CC)C=CCN5CC[C@]31[C@@H]54)C2` [Vinorelbine], the “% Cell Death” value in data set [3] is on record as 45%.
On to `COc1cccc2c1C(=O)c1c(O)c3c(c(O)c1C2=O)C[C@@](O)(C(=O)CO)C[C@@H]3O[C@H]1C[C@H](N)[C@@H](O)[C@H](C)O1` [epirubicin], for which the “% Cell Death” value in data set [3] is listed as “No Response”.
The same measure, in the same setting: the same measure for `C=C1C[C@@H]2CC[C@@]34C[C@H]5O[C@H]6[C@@H](O3)[C@H]3O[C@H](CC[C@@H]3O[C@H]6[C@H]5O4)CC(=O)C[C@@H]3[C@@H](OC)[C@@H](C[C@H](O)CN)O[C@H]3C[C@H]3O[C@@H](CC[C@@H]1O2)C[C@@H](C)C3=C` [eribulin]: “No Response”; for `O=P1(NCCCl)OCCCN1CCCl` (stereo not shown) [ifosfamide]: “No Response”.
Still for that read-out and setting: the result for `CN(Cc1cnc2nc(N)nc(N)c2n1)c1ccc(C(=O)N[C@@H](CCC(=O)O)C(=O)O)cc1` [methotrexate] reads “No Response”; that for `CO[C@@]12[C@H](COC(N)=O)C3=C(C(=O)C(C)=C(N)C3=O)N1C[C@@H]1N[C@@H]12` [mitomycin], “No Response”; that for `O=C1[O][Pt]2([NH][C@@H]3CCCC[C@H]3[NH]2)[O]C1=O` [oxaliplatin], “No Response”.
On the same count and under the same terms, the same measure for `CC[C@]1(O)C[C@H]2CN(CCc3c([nH]c4ccccc34)[C@@](C(=O)OC)(c3cc4c(cc3OC)N(C=O)[C@H]3[C@@](O)(C(=O)OC)[C@H](OC(C)=O)[C@]5(CC)C=CCN6CC[C@]43[C@@H]65)C2)C1` [vincristine]: “No Response”.
For Bevacizumab, the “Calculated IC50 PD3D Cell Culture” value in data set [1] is “Not Reached”. In data set [2] (in vivo), the peak concentration (Cmax) was 920 nM.
For the compound Bleomycin, the “% Cell Death” value in data set [3] worked out at 53%.

In general, IC50 refers to the point on the concentration scale where inhibition reaches its midpoint. As a reminder, the Cmax is the highest concentration seen after dosing.
